# Results published in patent US6737383B1, “Herbicidal oxadiazolidines” (priority 1999, dated 2004).
# Legend:
# blackgrass = test: Test B pre/postemergence blackgrass; assay type: in vivo, Alopecurus myosuroides
# How it was run: (§1)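 Response is a visual 0-to-10 score relative to untreated plants, where 0 means no effect and 10 means complete control, taken twelve to sixteen days after application. Treatments went onto soil at planting and onto foliage of 1- to 4-leaf plants, using a surfactant-containing non-phytotoxic solvent.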
# surinam grass = test: Test B pre/postemergence surinam grass; assay type: in vivo, Brachiaria decumbens
# How it was run: as §1
# cocklebur = test: Test B pre/postemergence cocklebur; assay type: in vivo, Xanthium strumarium
# How it was run: as §1
# corn = test: Test B pre/postemergence corn; assay type: in vivo, Zea mays
# How it was run: as §1
# crabgrass = test: Test B pre/postemergence crabgrass; assay type: in vivo, Digitaria sanguinalis
# How it was run: as §1
# giant foxtail = test: Test B pre/postemergence giant foxtail; assay type: in vivo, Setaria faberii
# How it was run: as §1
# morningglory = test: Test B pre/postemergence morningglory; assay type: in vivo, Ipomoea hederacea; settings: for Plant response rating, Morningglory: scale of 0 to 10 where 0 is no effect and 10 is complete control
# How it was run: as §1
# pigweed = test: Test B pre/postemergence pigweed; assay type: in vivo, Amaranthus retroflexus; settings: for Plant response rating, Redroot pigweed: scale of 0 to 10 where 0 is no effect and 10 is complete control
# How it was run: as §1
# rape = test: Test B pre/postemergence rape; assay type: in vivo, Brassica napus; settings: for Plant response rating, Rape: scale of 0 to 10 where 0 is no effect and 10 is complete control
# How it was run: as §1
# soybean = test: Test B pre/postemergence soybean; assay type: in vivo, Glycine max; settings: for Plant response rating, Soybean: scale of 0 to 10 where 0 is no effect and 10 is complete control
# How it was run: as §1
# sugar beet = test: Test B pre/postemergence sugar beet; assay type: in vivo, Beta vulgaris; settings: for Plant response rating, Sugarbeets: scale of 0 to 10 where 0 is no effect and 10 is complete control
# How it was run: as §1
# velvetleaf = test: Test B pre/postemergence velvetleaf; assay type: in vivo, Abutilon theophrasti; settings: for Plant response rating, Velvetleaf: scale of 0 to 10 where 0 is no effect and 10 is complete control
# How it was run: as §1
# wheat = test: Test B pre/postemergence wheat; assay type: in vivo, Triticum aestivum; settings: for Plant response rating, Wheat: scale of 0 to 10 where 0 is no effect and 10 is complete control
# How it was run: as §1
# wild oat = test: Test B pre/postemergence wild oat; assay type: in vivo, Avena fatua; settings: for Plant response rating, Wild oats: scale of 0 to 10 where 0 is no effect and 10 is complete control
# How it was run: as §1
# rice = test: Test B flood test rice; assay type: in vivo, Oryza sativa
# How it was run: (§2)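 Flood test on plants grown to the 2-leaf stage; treated plants kept in greenhouse twelve to sixteen days, then visually rated against controls on a 0 (no effect) to 10 (complete control) scale.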
# smallflower flatsedge = test: Test B flood test smallflower flatsedge; assay type: in vivo, Cyperus difformis
# How it was run: as §2
# [1] = Postemergence, Rate 250 g/ha, scale 0 to 10
# [2] = Postemergence, Rate 500 g/ha, scale of 0 to 10 where 0 is no effect and 10 is complete control
# [3] = Preemergence, Rate 62 g/ha, scale of 0 to 10 where 0 is no effect and 10 is complete control
# [4] = Preemergence, Rate 125 g/ha, scale of 0 to 10 where 0 is no effect and 10 is complete control
# [5] = Preemergence, Rate 250 g/ha, scale 0 to 10, 0 is no effect, 10 is complete control
# [6] = Preemergence, Rate 500 g/ha, scale 0 to 10, 0 is no effect, 10 is complete control
# [7] = Rate 62 g/ha, Postemergence, scale 0 to 10 (0 no effect, 10 complete control)
# [8] = Rate 125 g/ha, Postemergence, scale 0 to 10, 0 is no effect, 10 is complete control
# [9] = Rate 62 g/ha, flood test species, Pre-emergence, visual evaluation after twelve to sixteen days
# [10] = Rate 125 g/ha, under heading Pre-emergence, flood test species, visual evaluation after twelve to sixteen days
# [11] = Rate 250 g/ha, Pre-emergence (flood test species), scale 0 to 10, 0 is no effect, 10 is complete control
# [12] = Rate 500 g/ha, Pre-emergence, flood test species, scale 0 to 10 (0 no effect, 10 complete control)
smiles,measurement,setting,value
CC(C)N(C(=O)n1oc(=O)n(C(C)C(=O)N(C)C)c1=O)c1ccc(F)cc1 (stereo not shown) [Compound 478],Blackgrass plant response rating,blackgrass; [1],8
same,Blackgrass plant response rating,blackgrass; [2],8
same,"Plant response rating, Blackgrass",blackgrass; [3],4
same,"Plant response rating, Blackgrass",blackgrass; [4],8
same,Blackgrass plant response rating,blackgrass; [5],10
same,Blackgrass plant response rating,blackgrass; [6],10
same,Blackgrass plant response rating,blackgrass; [7],0
same,Blackgrass plant response rating,blackgrass; [8],2
same,B. signalgrass plant response rating,"surinam grass; Postemergence, Rate 250 g/ha, scale 0 to 10, 0 no effect, 10 complete control",5
same,B. signalgrass plant response rating,surinam grass; [2],8
same,"Plant response rating, B. signalgrass",surinam grass; [3],4
same,"Plant response rating, B. signalgrass",surinam grass; [4],6
same,B. signalgrass plant response rating,surinam grass; [5],9
same,B. signalgrass plant response rating,surinam grass; [6],10
same,B. signalgrass plant response rating,surinam grass; [7],0
same,B. signalgrass plant response rating,surinam grass; [8],0
same,Cocklebur plant response rating,cocklebur; [1],0
same,Cocklebur plant response rating,cocklebur; [2],0
same,"Plant response rating, Cocklebur",cocklebur; [3],0
same,"Plant response rating, Cocklebur",cocklebur; [4],0
same,Cocklebur plant response rating,cocklebur; [5],0
same,Cocklebur plant response rating,cocklebur; [6],0
same,Cocklebur plant response rating,cocklebur; [7],0
same,Cocklebur plant response rating,cocklebur; [8],0
same,Corn plant response rating,corn; [1],0
same,Corn plant response rating,corn; [2],2
same,"Plant response rating, Corn",corn; [3],0
same,"Plant response rating, Corn",corn; [4],0
same,Corn plant response rating,corn; [5],0
same,Corn plant response rating,corn; [6],0
same,Corn plant response rating,corn; [7],0
same,Corn plant response rating,corn; [8],0
same,Crabgrass plant response rating,crabgrass; [1],8
same,Crabgrass plant response rating,crabgrass; [2],9
same,"Plant response rating, Crabgrass",crabgrass; [3],8
same,"Plant response rating, Crabgrass",crabgrass; [4],9
same,Crabgrass plant response rating,crabgrass; [5],10
same,Crabgrass plant response rating,crabgrass; [6],10
same,Crabgrass plant response rating,crabgrass; [7],2
same,Crabgrass plant response rating,crabgrass; [8],3
same,Giant foxtail plant response rating,giant foxtail; [1],8
same,Giant foxtail plant response rating,giant foxtail; [2],9
same,"Plant response rating, Giant foxtail",giant foxtail; [3],9
same,"Plant response rating, Giant foxtail",giant foxtail; [4],10
same,Giant foxtail plant response rating,giant foxtail; [5],10
same,Giant foxtail plant response rating,giant foxtail; [6],10
same,Giant foxtail plant response rating,giant foxtail; [7],3
same,Giant foxtail plant response rating,giant foxtail; [8],6
same,Morningglory plant response rating,morningglory; [1],7
same,"Plant response rating, Morningglory","morningglory; Preemergence, Rate 62 g/ha",0
same,"Plant response rating, Morningglory","morningglory; Preemergence, Rate 125 g/ha",0
same,Morningglory plant response rating,morningglory; [5],1
same,Morningglory plant response rating,morningglory; [6],2
same,Morningglory plant response rating,morningglory; [7],3
same,Morningglory plant response rating,morningglory; [8],3
same,Redroot pigweed plant response rating,pigweed; [1],3
same,"Plant response rating, Redroot pigweed","pigweed; Preemergence, Rate 62 g/ha",8
same,"Plant response rating, Redroot pigweed","pigweed; Preemergence, Rate 125 g/ha",8
same,Redroot pigweed plant response rating,pigweed; [5],9
same,Redroot pigweed plant response rating,pigweed; [6],10
same,Redroot pigweed plant response rating,pigweed; [7],1
same,Redroot pigweed plant response rating,pigweed; [8],2
same,Rape plant response rating,rape; [1],0
same,"Plant response rating, Rape","rape; Preemergence, Rate 62 g/ha",0
same,"Plant response rating, Rape","rape; Preemergence, Rate 125 g/ha",1
same,Rape plant response rating,rape; [5],4
same,Rape plant response rating,rape; [6],6
same,Rape plant response rating,rape; [7],0
same,Rape plant response rating,rape; [8],0
same,Soybean plant response rating,soybean; [1],2
same,"Plant response rating, Soybean","soybean; Preemergence, Rate 62 g/ha",0
same,"Plant response rating, Soybean","soybean; Preemergence, Rate 125 g/ha",0
same,Soybean plant response rating,soybean; [5],0
same,Soybean plant response rating,soybean; [6],0
same,Soybean plant response rating,soybean; [7],2
same,Soybean plant response rating,soybean; [8],2
same,Sugarbeets plant response rating,sugar beet; [1],0
same,"Plant response rating, Sugarbeets","sugar beet; Preemergence, Rate 62 g/ha",0
same,"Plant response rating, Sugarbeets","sugar beet; Preemergence, Rate 125 g/ha",0
same,Sugarbeets plant response rating,sugar beet; [5],3
same,Sugarbeets plant response rating,sugar beet; [6],7
same,Sugarbeets plant response rating,sugar beet; [7],0
same,Sugarbeets plant response rating,sugar beet; [8],0
same,Velvetleaf plant response rating,velvetleaf; [1],0
same,"Plant response rating, Velvetleaf","velvetleaf; Preemergence, Rate 62 g/ha",0
same,"Plant response rating, Velvetleaf","velvetleaf; Preemergence, Rate 125 g/ha",1
same,Velvetleaf plant response rating,velvetleaf; [5],3
same,Velvetleaf plant response rating,velvetleaf; [6],7
same,Velvetleaf plant response rating,velvetleaf; [7],0
same,Velvetleaf plant response rating,velvetleaf; [8],0
same,Wheat plant response rating,wheat; [1],2
same,"Plant response rating, Wheat","wheat; Preemergence, Rate 62 g/ha",0
same,"Plant response rating, Wheat","wheat; Preemergence, Rate 125 g/ha",0
same,Wheat plant response rating,wheat; [5],1
same,Wheat plant response rating,wheat; [6],8
same,Wheat plant response rating,wheat; [7],0
same,Wheat plant response rating,wheat; [8],0
same,Wild oats plant response rating,wild oat; [1],0
same,"Plant response rating, Wild oats","wild oat; Preemergence, Rate 62 g/ha",2
same,"Plant response rating, Wild oats","wild oat; Preemergence, Rate 125 g/ha",7
same,Wild oats plant response rating,wild oat; [5],9
same,Wild oats plant response rating,wild oat; [6],10
same,Wild oats plant response rating,wild oat; [7],0
same,Wild oats plant response rating,wild oat; [8],0
same,"Plant response rating, Rice (0 to 10 scale, 0 is no effect, 10 is complete control)",rice; [9],0
same,"Rice plant response rating (0 to 10 scale, 0 is no effect, 10 is complete control)",rice; [10],0
same,Rice plant response rating,rice; [11],0
same,Rice plant response rating,rice; [12],0
same,"Plant response rating, S. Flatsedge (0 to 10 scale, 0 is no effect, 10 is complete control)",smallflower flatsedge; [9],0
same,"S. Flatsedge plant response rating (0 to 10 scale, 0 is no effect, 10 is complete control)",smallflower flatsedge; [10],0
same,S. Flatsedge plant response rating,smallflower flatsedge; [11],0
same,S. Flatsedge plant response rating,smallflower flatsedge; [12],0
